Key:
Assay in all cases: relative viability (nuclei count vs DMSO), 5 days (fraction); higher = more cells survive
PAC-1 + Luminespib = compound: C=CCc1cccc(/C=N/NC(=O)CN2CCN(Cc3ccccc3)CC2)c1O [PAC-1] + CCNC(=O)c1noc(-c2cc(C(C)C)c(O)cc2O)c1-c1ccc(CN2CCOCC2)cc1 [Luminespib] (partner 0.01 µM)
How it was run: (§1)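 Each reported value is a median over duplicate plates. It expresses relative viability: treated-well nuclei count divided by vehicle-well nuclei count. Lung cancer cell lines in 1536-well plates were dosed by pin tool a day after seeding, alone with one drug or with a fixed anchor-drug dose plus five library-drug doses (not always all listed) in √10 steps, and nuclei were counted after 5 days.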

PAC-1 + Crizotinib = compound: C=CCc1cccc(/C=N/NC(=O)CN2CCN(Cc3ccccc3)CC2)c1O [PAC-1] + C[C@@H](Oc1cc(-c2cnn(C3CCNCC3)c2)cnc1N)c1c(Cl)ccc(F)c1Cl [Crizotinib] (partner 1 µM)
How it was run: as §1

BMX-IN-1 + Luminespib = compound: C=CC(=O)Nc1cc(-n2c(=O)ccc3cnc4ccc(-c5ccc(NS(C)(=O)=O)cc5)cc4c32)ccc1C [BMX-IN-1] + CCNC(=O)c1noc(-c2cc(C(C)C)c(O)cc2O)c1-c1ccc(CN2CCOCC2)cc1 [Luminespib] (partner 0.01 µM)
How it was run: as §1

PAC-1 + Trametinib = compound: C=CCc1cccc(/C=N/NC(=O)CN2CCN(Cc3ccccc3)CC2)c1O [PAC-1] + CC(=O)Nc1cccc(-n2c(=O)n(C3CC3)c(=O)c3c(Nc4ccc(I)cc4F)n(C)c(=O)c(C)c32)c1 [Trametinib] (partner 0.02 µM)
How it was run: as §1

PAC-1 + Phenformin = compound: C=CCc1cccc(/C=N/NC(=O)CN2CCN(Cc3ccccc3)CC2)c1O [PAC-1] + N=C(N)NC(=N)NCCc1ccccc1 [Phenformin] (partner 250 µM)
How it was run: as §1

Cell Line	relative viability (PAC-1 + Luminespib; first compound 0.02 µM)	relative viability (PAC-1 + Luminespib; first compound 0.06325 µM)	relative viability (PAC-1 + Luminespib; first compound 0.2 µM)	relative viability (PAC-1 + Luminespib; first compound 2 µM)	relative viability (PAC-1 + Crizotinib; first compound 0.02 µM)	relative viability (PAC-1 + Crizotinib; first compound 0.06325 µM)	relative viability (PAC-1 + Crizotinib; first compound 0.2 µM)	relative viability (PAC-1 + Crizotinib; first compound 2 µM)	relative viability (BMX-IN-1 + Luminespib; first compound 0.02 µM)	relative viability (BMX-IN-1 + Luminespib; first compound 0.2 µM)	relative viability (BMX-IN-1 + Luminespib; first compound 0.6325 µM)	relative viability (BMX-IN-1 + Luminespib; first compound 2 µM)	relative viability (PAC-1 + Trametinib; first compound 0.02 µM)	relative viability (PAC-1 + Trametinib; first compound 0.06325 µM)	relative viability (PAC-1 + Trametinib; first compound 0.2 µM)	relative viability (PAC-1 + Trametinib; first compound 2 µM)	relative viability (PAC-1 + Phenformin; first compound 0.02 µM)	relative viability (PAC-1 + Phenformin; first compound 0.06325 µM)	relative viability (PAC-1 + Phenformin; first compound 0.2 µM)	relative viability (PAC-1 + Phenformin; first compound 2 µM)
NCI-H2087	0.174	0.243	0.21	0.182	0.995	0.966	0.728	0.68	0.192	0.179	0.188	0.133	0.184	0.227	0.236	0.244	0.398	0.42	0.344	0.377
NCI-H661	0.951	0.882	0.821	0.736	0.927	1.06	–	1.06	1	0.916	1.03	0.863	0.585	0.591	0.581	0.585	0.255	0.299	0.278	0.29
COR-L 105	0.769	0.788	0.627	0.725	0.873	0.915	0.774	0.64	0.753	0.693	0.928	0.706	0.436	0.453	0.47	0.355	0.465	0.484	0.428	0.455
BEN	0.594	0.282	0.535	0.273	0.92	0.882	0.804	0.832	0.417	0.332	0.328	0.364	1.08	1.09	1.17	0.923	0.273	0.282	0.266	0.302
NCI-H2023	0.741	0.703	0.667	0.444	0.629	0.635	0.534	0.586	1.06	1.03	0.774	0.739	0.723	0.542	0.47	0.402	0.427	0.404	0.405	0.397
UMC-11	1.05	0.986	1.04	0.928	0.62	0.606	0.546	0.666	1.17	1.24	1.19	1.03	0.731	0.742	0.878	0.713	0.325	0.368	0.298	0.326
NCI-H1755	0.482	0.306	0.502	0.563	0.938	0.867	0.847	0.805	0.525	0.387	0.502	0.597	0.815	0.767	0.783	0.733	0.615	0.614	0.595	0.606
NCI-H1666	0.981	1.08	1.08	0.864	0.981	0.897	1.05	1	1.05	1.08	1.04	1	0.909	0.868	0.862	0.914	0.589	0.559	0.695	0.549
NCI-H23	0.231	0.223	0.237	0.219	0.481	0.396	0.489	0.535	0.209	0.203	0.22	0.208	0.308	0.388	0.336	0.442	0.788	0.814	0.713	0.815
COR-L23	0.569	0.71	0.629	0.625	0.646	0.607	0.599	0.624	0.807	0.782	1.07	0.548	0.586	0.66	–	0.673	0.458	0.434	0.423	0.429
PC-14	0.127	0.172	0.151	0.252	0.946	0.931	0.855	0.945	0.184	0.107	0.14	0.152	0.815	0.704	0.781	0.793	0.59	0.683	0.727	0.633
LCLC-97TM1	0.74	0.916	0.621	0.868	–	0.252	0.358	0.298	0.969	0.856	0.817	0.823	0.179	0.196	–	0.221	0.507	0.456	0.424	0.427
HOP-62	0.954	0.835	0.852	0.942	0.844	1.01	1.02	0.954	1.08	1.06	0.891	0.926	0.387	0.404	0.388	0.406	0.692	0.541	0.585	0.647
NCI-H727	0.255	0.371	0.639	0.315	0.847	0.841	0.898	0.821	0.33	0.366	0.343	0.243	0.348	0.394	0.414	0.414	0.463	0.682	0.565	0.52
NCI-H1734	0.169	0.178	0.18	0.189	0.698	0.627	0.659	0.766	0.199	0.213	0.202	0.147	0.692	0.774	0.644	0.644	0.366	0.36	0.373	0.388
NCI-H1651	0.789	0.859	0.744	0.905	0.815	0.898	0.874	0.755	1.12	0.911	1.05	0.773	0.85	0.862	0.765	0.855	0.364	0.341	0.29	0.333

Cell Line	relative viability (PAC-1 + Luminespib; first compound 0.02 µM)	relative viability (PAC-1 + Luminespib; first compound 0.06325 µM)	relative viability (PAC-1 + Luminespib; first compound 0.2 µM)	relative viability (PAC-1 + Luminespib; first compound 2 µM)	relative viability (PAC-1 + Crizotinib; first compound 0.02 µM)	relative viability (PAC-1 + Crizotinib; first compound 0.06325 µM)	relative viability (PAC-1 + Crizotinib; first compound 0.2 µM)	relative viability (PAC-1 + Crizotinib; first compound 2 µM)	relative viability (BMX-IN-1 + Luminespib; first compound 0.02 µM)	relative viability (BMX-IN-1 + Luminespib; first compound 0.2 µM)	relative viability (BMX-IN-1 + Luminespib; first compound 0.6325 µM)	relative viability (BMX-IN-1 + Luminespib; first compound 2 µM)	relative viability (PAC-1 + Trametinib; first compound 0.02 µM)	relative viability (PAC-1 + Trametinib; first compound 0.06325 µM)	relative viability (PAC-1 + Trametinib; first compound 0.2 µM)	relative viability (PAC-1 + Trametinib; first compound 2 µM)	relative viability (PAC-1 + Phenformin; first compound 0.02 µM)	relative viability (PAC-1 + Phenformin; first compound 0.06325 µM)	relative viability (PAC-1 + Phenformin; first compound 0.2 µM)	relative viability (PAC-1 + Phenformin; first compound 2 µM)
NCI-H2170	0.64	0.607	0.542	0.606	1.15	1.25	1.14	1.03	0.921	0.77	0.821	0.819	0.888	0.958	0.932	0.859	0.426	0.356	0.422	0.384
NCI-H1650	0.191	0.199	0.209	0.191	0.936	1.09	0.898	1.03	0.205	0.198	0.221	0.203	0.538	0.54	0.335	0.542	0.427	0.478	0.411	0.42
LK-2	0.176	0.169	0.225	0.254	0.231	0.233	0.234	0.289	0.197	0.219	0.176	0.207	0.758	0.629	0.785	0.791	0.258	0.479	0.381	0.559
NCI-H2009	1.01	1.04	1.03	1.01	1.04	1.05	0.979	0.964	1.11	1.09	1.06	1.08	0.295	0.35	0.255	0.234	0.473	0.481	0.451	0.484
NCI-H2347	0.302	0.427	0.536	0.583	0.82	0.715	0.748	0.826	0.438	0.356	0.517	0.353	0.309	0.285	0.297	0.269	0.184	0.441	0.352	0.553
NCI-H460	0.035	0.0314	0.0281	0.0281	0.887	0.805	0.823	1.07	0.0361	0.0362	0.0299	0.0331	0.136	0.156	0.204	0.286	0.503	0.528	0.483	0.575
LC-2-ad	1.06	1.02	0.971	0.963	0.383	0.436	0.443	0.398	1.16	1.1	0.884	0.974	0.933	0.919	0.897	0.954	0.609	0.654	0.573	0.512
NCI-H596	0.913	0.975	0.929	1.08	0.974	0.952	0.98	1.07	0.917	1.02	1.02	1.01	0.704	0.802	0.801	0.87	0.739	1.03	0.783	0.785
A-427	1.13	0.769	0.988	0.951	0.896	1.01	0.797	0.836	1.13	0.844	1.01	1.04	0.767	0.778	0.817	0.796	0.328	0.384	0.338	0.279
HCC-44	1.04	1.14	1.01	0.964	0.809	0.797	0.807	0.772	1.29	1.27	0.821	1.04	1.05	1.08	1.07	1.02	0.184	0.18	0.17	0.131
HCC-827	0.634	0.465	0.649	0.609	0.982	0.943	0.875	0.889	0.589	0.805	0.716	0.713	0.505	0.569	0.528	0.536	0.383	0.402	0.368	0.4
NCI-H1915	0.792	0.845	0.68	0.779	0.892	0.899	0.85	0.857	0.912	1.14	0.785	0.751	0.304	0.303	0.303	0.33	0.364	0.358	0.345	0.365
NCI-H322M	0.812	0.832	0.848	0.775	0.792	0.839	0.877	0.854	0.847	0.807	0.756	0.883	0.498	0.575	0.542	0.503	0.716	0.819	0.776	0.762
EKVX	0.917	0.855	0.815	0.837	1.19	1.22	0.893	0.866	0.945	0.835	0.85	0.857	0.369	0.314	0.314	0.35	0.232	0.244	0.226	0.195
EMC-BAC-2	1.19	1.17	1.18	1.15	0.771	0.709	0.796	0.72	1.36	1.33	1.4	1.1	1.07	0.925	0.913	0.849	0.496	0.556	0.52	0.511
HCC-15	0.447	0.37	0.355	0.279	0.788	0.878	0.785	0.82	0.571	0.363	0.297	0.369	0.373	0.38	0.419	0.41	0.466	0.487	0.457	0.491

From the supplement of paper PMC10307832
